Results from patent US20080274121A1, “Inhibition of Angiogenesis by Mithramycin” (priority 2007, published 2008).

Columns and labels:
[1] = tested on: Sp1 recruitment into the Sp1 promoter; assay: ChIP assay, tumors formed by PANC-1 cells in nude mice; format: in vivo; conditions: tumors from treated mice (BVZ, MIT, B+M)
Description: FIG. 15. Effects of treatment with BVZ and MIT on Sp1 recruitment into the Sp1 promoter in human pancreatic cancer cells in vitro and in vivo. A, schematic structures of the minimal Sp1 promoters. The nucleotide positions and sequences of Sp1-binding sites and polymerase chain reaction forward and reverse primers flanking those sites for ChIP assay are shown. B, Sp1 and VEGF promoter reporter constructs were transfected into PANC-1 cells in triplicate and incubated for 12 hours. The cells were then incubated for another 24 hours in a medium alone or a medium containing 100 μg/ml BVZ or 0.1 μM MIT. Total protein lysates were harvested from the cell cultures for measurement of Sp1 and VEGF promoter activity using a luciferase assay kit. The relative Sp1 and VEGF promoter activities were assessed, and the activity in treated groups was expressed as the fold change of that in their respective control groups. C and D, chromatin was extracted from (C) PANC-1 cells that were incubated in vitro for 2 days in a medium alone or a medium containing 100 μg/ml BVZ or 0.1 μM MIT and (D) tumors formed by PANC-1 cells in nude mice that received treatment as described in FIG. 2A. […]

[2] = tested on: Sp1, VEGF, EGFR, PDGFA, CD31 (MVD); assay: Gene expression and MVD in H727 tumor tissues; format: in vivo, nude mice
Description: FIG. 20. Upregulation of Sp1 and VEGF expression by treatment with BVZ and its reversal by treatment with MIT. The tumor tissues described in FIG. 4 were collected and processed as described in Materials and Methods. A. Frozen sections made from the tumors were used CD31 staining and MVD assessment. Representative photos of the stains are shown. B. Total protein lysates were harvested from tumor tissues, and the expression levels of Sp1, VEGF, EGFR and PDGFA protein were determined using Western blot analyses. Equal protein-sample loading was monitored by probing the same membrane filter with an anti-GAPDH antibody. C. The expression levels of Sp1, VEGF, EGFR and PDGFA were further determined by calculating the ratios between those genes and GAPDH.
Western blot analysis. Whole-cell lysates were prepared from human LGNET cell lines and tissues (21). Standard Western blotting was performed using polyclonal rabbit antibodies against human and mouse Sp1, VEGF, EGFR and PDGFA (Santa Cruz Biotechnology, Santa Cruz, Calif.) and the anti-rabbit IgG antibody, a horseradish peroxidase-linked F(ab′)2 fragment obtained from a donkey (Amersham, Arlington Heights, Ill.). Equal protein-sample loading was monitored by probing the same membrane filter with an antibody against glyceraldehyde-3-phosphate dehydrogenase (GAPDH) (21). The probe proteins were detected using the Amersham enhanced chemiluminescence system according to the manufacturer's instructions.
Immunohistochemical analysis and quantification of tumor MVD. For CD31 staining, frozen tissue sections (5 μm thick) were fixed in acetone. Endogenous peroxidase in the specimens was blocked using 3% hydrogen peroxide in phosphate-buffered saline (PBS) for 12 minutes. […] For quantification of tumor MVD, vessels on each section were counted in five high-power fields (magnification, ×200 [×20 objective and ×10 ocular]) as described previously (40). […]

## bevacizumab [BVZ]
[1]
  Sp1 recruitment to its own promoter: significantly increase Sp1 recruitment to its own promoter
[2]; combination study (FIGS. 20B and 20C), Western blot
  expression of PDGFA, VEGF, and EGFR in H727 tumor tissue: upregulated the expression of other proangiogenic molecules
[2]; combination study: PBS, BVZ, MIT, or B+M (FIG. 20)
  Sp1 expression in H727 tumor tissue: increased expression of Sp1
[2]; combination study: low-dose BVZ or MIT alone (FIG. 20)
  MVD: did not significantly reduce MVD
